pIC50: −log10 of the molar value.
Biological target: T1, Nav 1.7 (Homo sapiens, UniProt Q15858)
T1 construct: expressed in transfected cells
Assay: Whole-cell voltage clamp electrophysiology, automated patch clamp (marker c in Table of Examples)
Format: cell-based
Details: marker c = Automated patch clamp data; read-out: Nav 1.7 activity
Summary of the method: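 Human NaV1.7 currents were recorded by whole-cell automated patch clamp, on IonWorks Quattro or another automated platform, typically in perforated-patch configuration. The stimulus protocol was designed to probe block mainly of the inactivated state, with a typical sweep stepping from about −65 mV holding to −10 mV, then −100 mV.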

T1 sequence (Q15858 whole entry): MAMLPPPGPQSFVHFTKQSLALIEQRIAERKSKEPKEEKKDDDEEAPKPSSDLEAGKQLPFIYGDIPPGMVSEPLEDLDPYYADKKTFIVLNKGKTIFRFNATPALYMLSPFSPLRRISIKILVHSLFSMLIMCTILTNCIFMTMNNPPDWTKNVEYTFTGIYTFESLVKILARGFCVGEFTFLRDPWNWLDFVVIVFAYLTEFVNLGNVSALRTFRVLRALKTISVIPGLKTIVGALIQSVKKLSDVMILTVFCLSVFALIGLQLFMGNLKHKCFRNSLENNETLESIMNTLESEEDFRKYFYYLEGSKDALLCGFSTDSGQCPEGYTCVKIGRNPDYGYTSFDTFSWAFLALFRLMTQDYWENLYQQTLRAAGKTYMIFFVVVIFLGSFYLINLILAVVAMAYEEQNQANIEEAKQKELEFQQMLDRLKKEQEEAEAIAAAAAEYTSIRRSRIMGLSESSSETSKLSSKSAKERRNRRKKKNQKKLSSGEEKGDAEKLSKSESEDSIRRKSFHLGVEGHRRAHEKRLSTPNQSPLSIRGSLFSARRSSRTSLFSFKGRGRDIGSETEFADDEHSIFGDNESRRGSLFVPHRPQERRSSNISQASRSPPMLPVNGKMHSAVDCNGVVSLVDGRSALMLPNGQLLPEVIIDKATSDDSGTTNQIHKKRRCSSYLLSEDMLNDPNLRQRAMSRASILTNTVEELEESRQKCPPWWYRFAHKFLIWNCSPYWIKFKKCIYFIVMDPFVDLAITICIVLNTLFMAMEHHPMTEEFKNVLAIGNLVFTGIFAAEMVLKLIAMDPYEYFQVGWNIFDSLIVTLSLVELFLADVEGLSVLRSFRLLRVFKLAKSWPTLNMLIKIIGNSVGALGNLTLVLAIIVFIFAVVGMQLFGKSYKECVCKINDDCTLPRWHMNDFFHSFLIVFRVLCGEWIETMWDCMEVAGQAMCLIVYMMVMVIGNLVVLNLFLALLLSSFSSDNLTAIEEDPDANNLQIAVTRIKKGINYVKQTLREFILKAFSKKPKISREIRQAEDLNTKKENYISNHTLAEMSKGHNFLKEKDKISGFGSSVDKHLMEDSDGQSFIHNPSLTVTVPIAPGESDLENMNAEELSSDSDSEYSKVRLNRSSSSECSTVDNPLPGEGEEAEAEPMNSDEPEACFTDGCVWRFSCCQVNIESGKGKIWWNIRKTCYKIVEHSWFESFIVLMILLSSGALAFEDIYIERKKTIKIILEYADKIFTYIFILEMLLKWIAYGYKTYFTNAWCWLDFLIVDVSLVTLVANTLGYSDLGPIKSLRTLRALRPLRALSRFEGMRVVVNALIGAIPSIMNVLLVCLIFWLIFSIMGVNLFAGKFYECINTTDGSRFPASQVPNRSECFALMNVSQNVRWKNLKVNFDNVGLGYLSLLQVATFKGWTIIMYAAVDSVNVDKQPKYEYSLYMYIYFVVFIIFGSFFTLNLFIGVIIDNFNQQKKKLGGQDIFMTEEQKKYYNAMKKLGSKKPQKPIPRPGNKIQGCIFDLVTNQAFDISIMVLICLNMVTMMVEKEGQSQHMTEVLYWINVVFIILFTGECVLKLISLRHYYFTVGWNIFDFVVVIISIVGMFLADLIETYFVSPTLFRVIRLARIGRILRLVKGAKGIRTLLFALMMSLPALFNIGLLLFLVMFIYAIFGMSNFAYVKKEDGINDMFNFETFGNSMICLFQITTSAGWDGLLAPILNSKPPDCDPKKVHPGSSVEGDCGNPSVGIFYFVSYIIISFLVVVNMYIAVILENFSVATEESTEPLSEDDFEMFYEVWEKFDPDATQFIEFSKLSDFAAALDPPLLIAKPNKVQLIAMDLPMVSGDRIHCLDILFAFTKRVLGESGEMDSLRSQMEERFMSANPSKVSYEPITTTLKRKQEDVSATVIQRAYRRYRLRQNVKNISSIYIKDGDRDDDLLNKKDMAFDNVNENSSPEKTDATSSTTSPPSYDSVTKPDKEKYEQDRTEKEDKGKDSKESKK

Compound: Nc1nc(Nc2cccc(F)c2)nc(-c2noc(NC3CCCC3)n2)n1 [Example 235, 6-[5-(cyclopentylamino)-1,2,4-oxadiazol-3-yl]-2-N-(3-fluorophenyl)-1,3,5-triazine-2,4-diamine]
- pIC50: 5.77

Compound: Nc1nc(Nc2cccc(F)c2)nc(-c2noc(N3CCCCC3)n2)n1 [Example 236, 2-N-(3-fluorophenyl)-6-[5-(piperidin-1-yl)-1,2,4-oxadiazol-3-yl]-1,3,5-triazine-2,4-diamine]
- pIC50: 6.39

Compound: COC1CCN(c2nc(-c3nc(N)nc(Nc4cccc(F)c4)n3)no2)CC1 [Example 237, 2-N-(3-fluorophenyl)-6-[5-(4-methoxypiperidin-1-yl)-1,2,4-oxadiazol-3-yl]-1,3,5-triazine-2,4-diamine]
- pIC50: 5.40

Compound: COc1cc(-c2nc(-c3nc(N)nc(Nc4ccccc4)n3)no2)ccn1 [Example 239, 6-[5-(2-methoxypyridin-4-yl)-1,2,4-oxadiazol-3-yl]-2-N-phenyl-1,3,5-triazine-2,4-diamine]
- pIC50: 5.23

Compound: Nc1nc(Nc2cccc(F)c2)nc(-c2noc(-c3ncccc3F)n2)n1 [Example 240, 2-N-(3-fluorophenyl)-6-[5-(3-fluoropyridin-2-yl)-1,2,4-oxadiazol-3-yl]-1,3,5-triazine-2,4-diamine]
- pIC50: 6.76

Compound: Nc1nc(Nc2ccc(F)cc2)nc(-c2noc(-c3nccs3)n2)n1 [Example 241]
- pIC50: 7.05

Compound: Nc1nc(Nc2ccccc2)nc(-c2noc(NC3CCCCC3)n2)n1 [Example 242, 6-[5-(cyclohexylamino)-1,2,4-oxadiazol-3-yl]-2-N-phenyl-1,3,5-triazine-2,4-diamine]
- pIC50: 5.27

Compound: CC1CCN(c2nc(-c3nc(N)nc(Nc4ccccc4)n3)no2)CC1 [Example 243, 6-[5-(4-methylpiperidin-1-yl)-1,2,4-oxadiazol-3-yl]-2-N-phenyl-1,3,5-triazine-2,4-diamine]
- pIC50: 5.10

Compound: Nc1nc(Nc2ccccc2)nc(-c2noc(C(=O)NC3CCc4ccccc43)n2)n1 (stereo not shown) [Example 244, 3-[4-amino-6-(phenylamino)-1,3,5-triazin-2-yl]-N-(2,3-dihydro-1H-inden-1-yl)-1,2,4-oxadiazole-5-carboxamide]
- pIC50: 5.53

Compound: CC1CCN(c2nc(-c3nc(N)nc(Nc4cccc(F)c4)n3)no2)CC1 [Example 245, 2-N-(3-fluorophenyl)-6-[5-(4-methylpiperidin-1-yl)-1,2,4-oxadiazol-3-yl]-1,3,5-triazine-2,4-diamine]
- pIC50: 5.51

Compound: Nc1nc(Nc2ccccc2)nc(-c2noc(N3CCC4(CC3)COC4)n2)n1 [Example 246, 6-(5-{2-oxa-7-azaspiro[3.5]nonan-7-yl}-1,2,4-oxadiazol-3-yl)-2-N-phenyl-1,3,5-triazine-2,4-diamine]
- pIC50: 5.03

Compound: COc1ccccc1-c1nc(-c2nc(N)nc(Nc3ccccc3)n2)no1 [Example 247, 6-[5-(2-methoxyphenyl)-1,2,4-oxadiazol-3-yl]-2-N-phenyl-1,3,5-triazine-2,4-diamine]
- pIC50: 7.40

Compound: COc1ccccc1-c1nc(-c2nc(N)nc(Nc3cccc(F)c3)n2)no1 [Example 248, 2-N-(3-fluorophenyl)-6-[5-(2-methoxyphenyl)-1,2,4-oxadiazol-3-yl]-1,3,5-triazine-2,4-diamine]
- pIC50: 6.42

Compound: Nc1ccc(-c2nc(-c3nc(N)nc(Nc4cccc(F)c4)n3)no2)nc1 [Example 249, 6-[5-(5-aminopyridin-2-yl)-1,2,4-oxadiazol-3-yl]-2-N-(3-fluorophenyl)-1,3,5-triazine-2,4-diamine]
- pIC50: 5.04

Compound: Nc1nc(Nc2cccc(F)c2)nc(-c2noc(C(=O)NC3COC3)n2)n1 [Example 250, 3-{4-amino-6-[(3-fluorophenyl)amino]-1,3,5-triazin-2-yl}-N-(oxetan-3-yl)-1,2,4-oxadiazole-5-carboxamide]
- pIC50: 5.01

Compound: CN(c1ccccc1)c1nc(N)nc(-c2noc(-c3n[nH]cc3Br)n2)n1 [Example 251, 6-[5-(4-bromo-1H-pyrazol-3-yl)-1,2,4-oxadiazol-3-yl]-2-N-methyl-2-N-phenyl-1,3,5-triazine-2,4-diamine]
- pIC50: 5.60

From patent publication US8895733B2 (Novartis AG, priority 2010, dated 2014)
